The values that follow come from US20230339854A1, “Negative Allosteric Modulation of GluN3-Containing N-Methyl-D-Aspartate Receptors” (Emory University, priority 2020, published 2023).

For the assay, the target named is T1, human GluN1^FA,TL/GluN3A receptors (Homo sapiens, UniProt Q8TCU5).
T1 construct: Human GluN3A (NP_597702.2) and rat GluN3B (NP_579842.2) were synthesized and subcloned into SP6 plasmids; expressed in transfected cells; host or cells: Xenopus laevis oocytes, cRNA injection (GluN1:GluN3 1:3)
T1 sequence (Q8TCU5 24-1115, other chains not shown): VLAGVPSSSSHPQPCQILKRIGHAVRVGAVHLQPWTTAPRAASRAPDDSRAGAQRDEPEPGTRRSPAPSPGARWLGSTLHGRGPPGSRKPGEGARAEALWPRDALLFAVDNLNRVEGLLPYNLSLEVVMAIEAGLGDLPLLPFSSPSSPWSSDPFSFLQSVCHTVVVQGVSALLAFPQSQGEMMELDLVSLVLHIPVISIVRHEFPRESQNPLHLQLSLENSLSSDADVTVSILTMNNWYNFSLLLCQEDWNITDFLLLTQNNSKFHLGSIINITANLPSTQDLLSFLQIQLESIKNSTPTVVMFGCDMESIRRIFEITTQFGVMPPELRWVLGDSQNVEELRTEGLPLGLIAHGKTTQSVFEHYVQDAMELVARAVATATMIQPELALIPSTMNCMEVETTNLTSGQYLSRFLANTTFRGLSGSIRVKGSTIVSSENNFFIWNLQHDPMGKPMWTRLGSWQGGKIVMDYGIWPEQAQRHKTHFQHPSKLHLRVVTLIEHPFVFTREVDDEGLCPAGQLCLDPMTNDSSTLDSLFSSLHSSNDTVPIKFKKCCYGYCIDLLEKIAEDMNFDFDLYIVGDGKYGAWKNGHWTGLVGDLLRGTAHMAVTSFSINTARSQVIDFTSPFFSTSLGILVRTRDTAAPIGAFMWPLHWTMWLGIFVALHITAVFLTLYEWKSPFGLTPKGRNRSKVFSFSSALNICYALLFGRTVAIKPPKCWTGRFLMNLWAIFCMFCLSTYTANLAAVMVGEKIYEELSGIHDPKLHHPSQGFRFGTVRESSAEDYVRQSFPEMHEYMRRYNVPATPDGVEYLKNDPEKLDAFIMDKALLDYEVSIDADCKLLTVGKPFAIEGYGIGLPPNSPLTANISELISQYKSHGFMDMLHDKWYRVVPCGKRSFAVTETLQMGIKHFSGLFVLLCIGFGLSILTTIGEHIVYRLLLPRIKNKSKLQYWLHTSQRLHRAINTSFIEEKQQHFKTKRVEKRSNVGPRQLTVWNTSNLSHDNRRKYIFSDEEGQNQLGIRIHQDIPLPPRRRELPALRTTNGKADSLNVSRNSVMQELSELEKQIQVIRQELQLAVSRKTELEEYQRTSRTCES
Nature of the assay: Two-electrode voltage-clamp recordings of GluN1^FA,TL/GluN3A receptors in Xenopus oocytes. Format: cell-based. The conditions noted are these: read-out: hGluN1^FA,TL/hGluN3A (100 × Idrug/Icontrol at 30 μM drug). From the text:
cDNA encoding human wild-type (WT) GluN1-1a (GenBank accession numbers NP_015566, hereafter GluN1) and rat GluN1-1a (NP_058706.1) were synthesized and subcloned into pGEMHE plasmid; some experiments used the rat splice variant GluN1-4a (NP_001257531.1). Human GluN3A (NP_597702.2) and rat GluN3B (NP_579842.2) were synthesized and subcloned into SP6 plasmids. For most experiments, human GluN1 was co-expressed with human GluN3A, except for mutagenesis experiments where rat GluN1 was co-expressed with human GluN3A. Rat GluN1-4a was always expressed with rat GluN3B.
Defolliculated Xenopus laevis oocytes (stage V-VI) were obtained from Ecocyte BioScience (Austin, Texas), or prepared from commercially available Xenopus ovaries (Xenopus 1, Dexter, MI) as previously described (Hansen, et al., Mol. Pharmacol., 2013). A Drummond Nanoject II (Broomall, PA) was used to inject oocytes with cRNAs encoding GluN1 and GluN3 at a 1:3 ratio in RNase-free water. The cRNA was diluted as needed to give responses with amplitudes ranging between 200-2000 nA (0.2-10 ng total cRNA). Following cRNA injection, the oocytes were stored at 15-19° C. in Barth's solution that contained (in mM) 88 NaCl, 2.4 NaHCO3, 1 KCl, 0.33 Ca(NO3)2, 0.41 CaCl2), 0.82 MgSO4, and 5 Tris-HCl (pH 7.4 with NaOH), supplemented with 1 μg/ml streptomycin (Invitrogen, Carlsbad, CA) and 100 μg/ml gentamicin (Fisher Scientific, Pittsburgh, PA). Recordings were performed 2-5 days following cRNA microinjection at room temperature (23° C.) using a two-electrode voltage-clamp amplifier (OC725, Warner Instrument, Hamilton, CT). The signal was low-pass filtered at 10-20 Hz (4-pole, −3 dB Bessel) and digitized at the Nyquist rate using PCI-6025E or USB-6212 BNC data acquisition boards (National Instruments, Austin, TX) using EasyOocyte (http://www.easyoocyte.io/). Oocytes were placed in a custom-made chamber and continuously perfused (2.5 ml/min) with oocyte recording solution containing (in mM) 90 NaCl, 1 KCl, 10 HEPES, 0.5-1.0 BaCl2, and 0.01 EDTA (pH 7.4 with NaOH). Solutions were applied by gravity, and solution exchange was controlled through a rotary valve (Hamilton, Reno, NV). Recording electrodes were filled with 0.3-3.0 M KCl, and current responses were recorded at a holding potential of −40 mV.
Response (%)=(100−minimum)/(1+([concentration]/IC50)^nH)+minimum (2) • where nH is the Hill slope, IC50 is the concentration that produces a half-maximal effect, and minimum is the degree of residual inhibition at a saturating concentration of the negative allosteric modulator.
The afore-referenced compounds were screened in the same assay as EU1180-438 to determine their effects on hGluN1^FA,TL/hGluN3A receptors. Selected compounds that inhibited by more than 20% at the concentration at which they were initially evaluated (either 10 or 30 μM) were analyzed further, and a dose-response curve was generated to determine their IC50 values.

For the molecule `COc1ccc(OCC(c2ccc(OC)cc2)N2Cc3ccc(F)cc3C2=O)cc1` (stereo not shown) [EU1180-522, 6-Fluoro-2-(2-(4-methoxyphenoxy)-1-(4-methoxyphenyl)ethyl)isoindolin-1-one], the remaining activity at 30 µM came out at 25%.
For `COc1ccc(OCC(c2c(F)cc(OC)cc2F)N2Cc3ccc(Br)cc3C2=O)cc1` (stereo not shown) [EU1180-550, 6-Bromo-2-(1-(2,6-difluoro-4-methoxyphenyl)-2-(4-methoxyphenoxy)ethyl)isoindolin-1-one] the value was 93%.
In the case of `COc1ccc(C(COc2cccc(C)n2)N2Cc3ccc(C(F)(F)F)cc3C2=O)c(F)c1` (stereo not shown) [EU1180-603, 2-(1-(2-Fluoro-4-methoxyphenyl)-2-((6-methylpyridin-2-yl)oxy)ethyl)-6-(trifluoromethyl)isoindolin-1-one], the remaining activity at 30 µM turned out to be 84%.
The figure for `CC(C)Oc1ccc(C(COc2ccc(OC(F)(F)F)cc2)N2Cc3cc(Br)ccc3C2=O)cc1` (stereo not shown) [EU1180-554, 5-bromo-2-(1-(4-isopropoxyphenyl)-2-(4-(trifluoromethoxy)phenoxy)ethyl)isoindolin-1-one] is 101%; for `CC(C)Oc1ccc(C(COc2ccc(OC(F)(F)F)cc2)N2Cc3ccc(Br)cc3C2=O)cc1` (stereo not shown) [EU1180-553, 6-bromo-2-(1-(4-isopropoxyphenyl)-2-(4-(trifluoromethoxy)phenoxy)ethyl)isoindolin-1-one] it is 101%; for `COc1ccc(OCC(c2ccc(OC(C)C)cc2)N2Cc3ccc(F)cc3C2=O)cc1` (stereo not shown) [EU1180-560, 6-fluoro-2-(1-(4-isopropoxyphenyl)-2-(4-methoxyphenoxy)ethyl)isoindolin-1-one] it is 23%.
Consider `CC(C)Oc1ccc(C(COc2ccc(C(F)(F)F)cc2)N2Cc3cc(Cl)ccc3C2=O)cc1` (stereo not shown) [EU1180-574, 5-chloro-2-(1-(4-isopropoxyphenyl)-2-(4-(trifluoromethyl)phenoxy)ethyl)isoindolin-1-one], for which the remaining activity at 30 µM stood at 91%.
As to `COc1cc(F)c(C(COc2cccc(C)n2)N2Cc3cc(F)ccc3C2=O)c(F)c1` (stereo not shown) [EU1180-613, 2-(1-(2,6-Difluoro-4-methoxyphenyl)-2-((6-methylpyridin-2-yl)oxy)ethyl)-5-fluoroisoindolin-1-one], the remaining activity at 30 µM came to 89%.
With `CC(C)Oc1ccc(C(COc2ccc(OC(F)(F)F)cc2)N2Cc3ccc(Cl)cc3C2=O)cc1` (stereo not shown) [EU1180-540, 6-chloro-2-(1-(4-isopropoxyphenyl)-2-(4-(trifluoromethoxy)phenoxy)ethyl)isoindolin-1-one], the remaining activity at 30 µM was 100%.
As to `COc1ccc(OCC(c2ccc(OC)c(OC)c2)N2Cc3cc(F)ccc3C2=O)cc1` (stereo not shown) [EU1180-528, 2-(1-(3,4-Dimethoxyphenyl)-2-(4-methoxyphenoxy)ethyl)-5-fluoroisoindolin-1-one], the remaining activity at 30 µM stood at 94%.
Take `COc1cc(F)c(C(COc2cccc(C)n2)N2Cc3ccc(F)cc3C2=O)c(F)c1` (stereo not shown) [EU1180-614, 2-(1-(2,6-Difluoro-4-methoxyphenyl)-2-((6-methylpyridin-2-yl)oxy)ethyl)-6-fluoroisoindolin-1-one]: the remaining activity at 30 µM worked out at 57%.
As to `COc1ccc(C(COc2cccc(C)n2)N2Cc3ccc(F)cc3C2=O)cc1` (stereo not shown) [EU1180-599, 6-Fluoro-2-(1-(4-methoxyphenyl)-2-((6-methylpyridin-2-yl)oxy)ethyl)isoindolin-1-one], the remaining activity at 30 µM amounted to 57%.
For `COc1ccc(OCC(c2ccc(OC(C)C)cc2)N2Cc3ccc(C(F)(F)F)cc3C2=O)cc1` (stereo not shown) [EU1180-558, 2-(1-(4-isopropoxyphenyl)-2-(4-methoxyphenoxy)ethyl)-6-(trifluoromethyl)isoindolin-1-one] the value was 98%.
The figure for `CC(C)Oc1ccc(C(COc2ccc(C(F)(F)F)cc2)N2Cc3ccc(Cl)cc3C2=O)cc1` (stereo not shown) [EU1180-573, 6-chloro-2-(1-(4-isopropoxyphenyl)-2-(4-(trifluoromethyl)phenoxy)ethyl)isoindolin-1-one] is 100%; for `COc1ccc(OCC(c2c(F)cc(OC)cc2F)N2Cc3ccc(F)cc3C2=O)cc1` (stereo not shown) [EU1180-552, 2-(1-(2,6-Difluoro-4-methoxyphenyl)-2-(4-methoxyphenoxy)ethyl)-6-fluoroisoindolin-1-one] it is 70%; for `COc1ccc(OCC(c2ccc(OC)cc2)N2Cc3cc(Br)ccc3C2=O)cc1` (stereo not shown) [EU1180-519, 5-Bromo-2-(2-(4-methoxyphenoxy)-1-(4-methoxyphenyl)ethyl)isoindolin-1-one] it is 90%.
For `COc1ccc(OCC(c2ccc(OC)cc2F)N2Cc3ccc(C(F)(F)F)cc3C2=O)cc1` (stereo not shown) [EU1180-531, 2-(1-(2-Fluoro-4-methoxyphenyl)-2-(4-methoxyphenoxy)ethyl)-6-(trifluoromethyl)isoindolin-1-one] the value was 99%; for `COc1ccc(C(COc2cccc(C)n2)N2Cc3ccc(Br)cc3C2=O)c(F)c1` (stereo not shown) [EU1180-607, 6-Bromo-2-(1-(2-fluoro-4-methoxyphenyl)-2-((6-methylpyridin-2-yl)oxy)ethyl)isoindolin-1-one], 62%; for `CC(C)Oc1ccc(C(COc2ccc(OC(F)(F)F)cc2)N2Cc3ccc(F)cc3C2=O)cc1` (stereo not shown) [EU1180-542, 6-fluoro-2-(1-(4-isopropoxyphenyl)-2-(4-(trifluoromethoxy)phenoxy)ethyl)isoindolin-1-one], 98%.
Turning to `COc1ccc(OCC(c2c(F)cc(OC)cc2F)N2Cc3cc(F)ccc3C2=O)cc1` (stereo not shown) [EU1180-551, 2-(1-(2,6-Difluoro-4-methoxyphenyl)-2-(4-methoxyphenoxy)ethyl)-5-fluoroisoindolin-1-one], the remaining activity at 30 µM is 92%.
The figure for `COc1ccc(OCC(c2ccc(OC)cc2F)N2Cc3ccc(F)cc3C2=O)cc1` (stereo not shown) [EU1180-537, 6-Fluoro-2-(1-(2-fluoro-4-methoxyphenyl)-2-(4-methoxyphenoxy)ethyl)isoindolin-1-one] is 66%.
The figure for `COc1ccc(C(COc2cccc(C)n2)N2Cc3ccc(Cl)cc3C2=O)c(F)c1` (stereo not shown) [EU1180-605, 6-Chloro-2-(1-(2-fluoro-4-methoxyphenyl)-2-((6-methylpyridin-2-yl)oxy)ethyl)isoindolin-1-one] is 69%; for `COc1ccc(OCC(c2ccc(OC)cc2F)N2Cc3ccc(Cl)cc3C2=O)cc1` (stereo not shown) [EU1180-533, 6-Chloro-2-(1-(2-fluoro-4-methoxyphenyl)-2-(4-methoxyphenoxy)ethyl)isoindolin-1-one] it is 49%.
For `COc1cc(F)c(C(COc2cccc(C)n2)N2Cc3cc(Br)ccc3C2=O)c(F)c1` (stereo not shown) [EU1180-612, 5-Bromo-2-(1-(2,6-difluoro-4-methoxyphenyl)-2-((6-methylpyridin-2-yl)oxy)ethyl)isoindolin-1-one] the value was 79%.
Turning to `CC(C)Oc1ccc(C(COc2ccc(C(F)(F)F)cc2)N2Cc3ccc(F)cc3C2=O)cc1` (stereo not shown) [EU1180-575, 6-fluoro-2-(1-(4-isopropoxyphenyl)-2-(4-(trifluoromethyl)phenoxy)ethyl)isoindolin-1-one], the remaining activity at 30 µM was 76%.
As for `COc1ccc(OCC(c2ccc(OC)cc2F)N2Cc3ccccc3C2=O)cc1` (stereo not shown) [EU1180-530, 2-(1-(2-Fluoro-4-methoxyphenyl)-2-(4-methoxyphenoxy)ethyl)isoindolin-1-one], the remaining activity at 30 µM came to 41%.
Take `CC(C)Oc1ccc(C(COc2ccc(C(F)(F)F)cc2)N2Cc3cc(Br)ccc3C2=O)cc1` (stereo not shown) [EU1180-578, 5-bromo-2-(1-(4-isopropoxyphenyl)-2-(4-(trifluoromethyl)phenoxy)ethyl)isoindolin-1-one]: the remaining activity at 30 µM is 118%.
For `CC(C)Oc1ccc(C(COc2ccc(C(F)(F)F)cc2)N2Cc3cc(F)ccc3C2=O)cc1` (stereo not shown) [EU1180-576, 5-fluoro-2-(1-(4-isopropoxyphenyl)-2-(4-(trifluoromethyl)phenoxy)ethyl)isoindolin-1-one] the value was 104%.
